Legend:
Experiment in all cases: relative viability (nuclei count vs DMSO), 5 days (fraction); higher = more cells survive
NCI-H23 = tested on: NCI-H23
In short: (§1)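 The day after seeding in 1536-well plates, lung cancer cell lines were treated by pin tool with a single drug, or with a fixed anchor-drug dose together with five library-drug doses (not always all listed) in √10 steps. After 5 days, a combined fix-and-stain solution (final 0.05% Triton X-100, 1% formaldehyde, 1 ug/ml Hoechst) was added. Nuclei counted on 4× images gave relative viability as treated counts over vehicle counts, reported as the median of duplicate plates.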

NCI-H1993 = tested on: NCI-H1993
In short: as §1

LK-2 = tested on: LK-2
In short: as §1

NCI-H1666 = tested on: NCI-H1666
In short: as §1

PC-14 = tested on: PC-14
In short: as §1

NCI-H2405 = tested on: NCI-H2405
In short: as §1

NCI-H2170 = tested on: NCI-H2170
In short: as §1

NCI-H3122 = tested on: NCI-H3122
In short: as §1

NCI-H1755 = tested on: NCI-H1755
In short: as §1

ABC-1 = tested on: ABC-1
In short: as §1

LU99A = tested on: LU99A
In short: as §1

NCI-H1437 = tested on: NCI-H1437
In short: as §1

NCI-H1793 = tested on: NCI-H1793
In short: as §1

HARA = tested on: HARA
In short: as §1

NCI-H2085 = tested on: NCI-H2085
In short: as §1

RERF-LC-KJ = tested on: RERF-LC-KJ
In short: as §1

LXF-289 = tested on: LXF-289
In short: as §1

LCLC-103H = tested on: LCLC-103H
In short: as §1

LOU-NH91 = tested on: LOU-NH91
In short: as §1

BEN = tested on: BEN
In short: as §1

NCI-H2342 = tested on: NCI-H2342
In short: as §1

A-427 = tested on: A-427
In short: as §1

Structure (SMILES): C=C1C(=O)O[C@@H](CCCCCCCC)[C@@H]1C(=O)O [C-75] + NC(=O)Nc1cc(-c2cccc(F)c2)sc1C(=O)N[C@H]1CCCNC1 [AZD7762] (partner 0.2 µM)
- relative viability (NCI-H23; first compound 0.08 µM): 0.255
- relative viability (NCI-H23; first compound 0.253 µM): 0.43
- relative viability (NCI-H23; first compound 0.8 µM): 0.263
- relative viability (NCI-H23; first compound 2.53 µM): 0.197
- relative viability (NCI-H23; first compound 8 µM): 0.376
- relative viability (NCI-H1993; first compound 0.08 µM): 0.959
- relative viability (NCI-H1993; first compound 0.253 µM): 0.998
- relative viability (NCI-H1993; first compound 0.8 µM): 0.772
- relative viability (NCI-H1993; first compound 2.53 µM): 0.687
- relative viability (NCI-H1993; first compound 8 µM): 0.685
- relative viability (LK-2; first compound 0.08 µM): 0.355
- relative viability (LK-2; first compound 0.253 µM): 0.699
- relative viability (LK-2; first compound 0.8 µM): 0.299
- relative viability (LK-2; first compound 2.53 µM): 0.289
- relative viability (LK-2; first compound 8 µM): 0.255
- relative viability (NCI-H1666; first compound 0.08 µM): 0.801
- relative viability (NCI-H1666; first compound 0.253 µM): 0.955
- relative viability (NCI-H1666; first compound 0.8 µM): 0.725
- relative viability (NCI-H1666; first compound 2.53 µM): 0.657
- relative viability (NCI-H1666; first compound 8 µM): 0.708
- relative viability (PC-14; first compound 0.08 µM): 0.358
- relative viability (PC-14; first compound 0.8 µM): 0.243
- relative viability (PC-14; first compound 2.53 µM): 0.328
- relative viability (PC-14; first compound 8 µM): 0.319
- relative viability (NCI-H2405; first compound 0.08 µM): 0.689
- relative viability (NCI-H2405; first compound 0.253 µM): 0.4
- relative viability (NCI-H2405; first compound 0.8 µM): 0.831
- relative viability (NCI-H2405; first compound 2.53 µM): 0.67
- relative viability (NCI-H2405; first compound 8 µM): 0.764
- relative viability (NCI-H2170; first compound 0.08 µM): 0.945
- relative viability (NCI-H2170; first compound 0.253 µM): 1.1
- relative viability (NCI-H2170; first compound 0.8 µM): 0.858
- relative viability (NCI-H2170; first compound 2.53 µM): 0.737
- relative viability (NCI-H2170; first compound 8 µM): 0.887
- relative viability (NCI-H3122; first compound 0.08 µM): 1.03
- relative viability (NCI-H3122; first compound 0.253 µM): 1.09
- relative viability (NCI-H3122; first compound 0.8 µM): 0.951
- relative viability (NCI-H3122; first compound 2.53 µM): 0.883
- relative viability (NCI-H3122; first compound 8 µM): 1.03
- relative viability (NCI-H1755; first compound 0.08 µM): 0.42
- relative viability (NCI-H1755; first compound 0.253 µM): 0.473
- relative viability (NCI-H1755; first compound 0.8 µM): 0.397
- relative viability (NCI-H1755; first compound 2.53 µM): 0.405
- relative viability (NCI-H1755; first compound 8 µM): 0.416
- relative viability (ABC-1; first compound 0.08 µM): 0.736
- relative viability (ABC-1; first compound 0.253 µM): 0.461
- relative viability (ABC-1; first compound 0.8 µM): 0.685
- relative viability (ABC-1; first compound 2.53 µM): 0.672
- relative viability (ABC-1; first compound 8 µM): 0.775
- relative viability (LU99A; first compound 0.08 µM): 0.36
- relative viability (LU99A; first compound 0.253 µM): 0.529
- relative viability (LU99A; first compound 0.8 µM): 0.33
- relative viability (LU99A; first compound 2.53 µM): 0.284
- relative viability (LU99A; first compound 8 µM): 0.401
- relative viability (NCI-H1437; first compound 0.08 µM): 1.11
- relative viability (NCI-H1437; first compound 0.253 µM): 1.09
- relative viability (NCI-H1437; first compound 0.8 µM): 1.09
- relative viability (NCI-H1437; first compound 2.53 µM): 1.09
- relative viability (NCI-H1437; first compound 8 µM): 1.15
- relative viability (NCI-H1793; first compound 0.08 µM): 0.478
- relative viability (NCI-H1793; first compound 0.253 µM): 0.645
- relative viability (NCI-H1793; first compound 2.53 µM): 0.293
- relative viability (NCI-H1793; first compound 8 µM): 0.854
- relative viability (HARA; first compound 0.08 µM): 0.568
- relative viability (HARA; first compound 0.253 µM): 0.469
- relative viability (HARA; first compound 0.8 µM): 0.213
- relative viability (HARA; first compound 2.53 µM): 0.447
- relative viability (HARA; first compound 8 µM): 0.722
- relative viability (NCI-H2085; first compound 0.08 µM): 0.95
- relative viability (NCI-H2085; first compound 0.253 µM): 1.09
- relative viability (NCI-H2085; first compound 0.8 µM): 0.919
- relative viability (NCI-H2085; first compound 2.53 µM): 0.943
- relative viability (NCI-H2085; first compound 8 µM): 1
- relative viability (RERF-LC-KJ; first compound 0.08 µM): 0.946
- relative viability (RERF-LC-KJ; first compound 0.253 µM): 1.16
- relative viability (RERF-LC-KJ; first compound 0.8 µM): 0.824
- relative viability (RERF-LC-KJ; first compound 2.53 µM): 0.925
- relative viability (RERF-LC-KJ; first compound 8 µM): 1.09
- relative viability (LXF-289; first compound 0.08 µM): 1.07
- relative viability (LXF-289; first compound 0.253 µM): 1.21
- relative viability (LXF-289; first compound 0.8 µM): 1.02
- relative viability (LXF-289; first compound 2.53 µM): 1.07
- relative viability (LXF-289; first compound 8 µM): 1.21
- relative viability (LCLC-103H; first compound 0.08 µM): 0.809
- relative viability (LCLC-103H; first compound 0.253 µM): 0.619
- relative viability (LCLC-103H; first compound 0.8 µM): 0.695
- relative viability (LCLC-103H; first compound 2.53 µM): 0.654
- relative viability (LCLC-103H; first compound 8 µM): 0.814
- relative viability (LOU-NH91; first compound 0.08 µM): 0.739
- relative viability (LOU-NH91; first compound 0.253 µM): 0.704
- relative viability (LOU-NH91; first compound 0.8 µM): 0.684
- relative viability (LOU-NH91; first compound 8 µM): 0.818
- relative viability (BEN; first compound 0.08 µM): 0.676
- relative viability (BEN; first compound 0.253 µM): 0.729
- relative viability (BEN; first compound 0.8 µM): 0.589
- relative viability (BEN; first compound 2.53 µM): 0.633
- relative viability (BEN; first compound 8 µM): 0.627
- relative viability (NCI-H2342; first compound 0.08 µM): 0.569
- relative viability (NCI-H2342; first compound 0.253 µM): 0.562
- relative viability (NCI-H2342; first compound 0.8 µM): 0.45
- relative viability (NCI-H2342; first compound 2.53 µM): 0.458
- relative viability (NCI-H2342; first compound 8 µM): 0.505
- relative viability (A-427; first compound 0.08 µM): 0.698
- relative viability (A-427; first compound 0.253 µM): 0.825
- relative viability (A-427; first compound 0.8 µM): 0.537
- relative viability (A-427; first compound 2.53 µM): 0.72
- relative viability (A-427; first compound 8 µM): 0.536

Source: the supplement of paper PMC10307832
